How the values were obtained:
[1] = Nijjar J. S. et al., Rheumatology 2013; cited from earlier work
previously untreated AML = assay: phase 1b/2 study (NCT02343939) of entospletinib monotherapy followed by combination with daunorubicin and cytarabine; conditions: for complete remission (CR) rate: with induction chemotherapy
Source text: Patients with residual disease two weeks after chemotherapy received a second induction cycle identical to the first.

| Compound | adverse side effects [1] | patients requiring a second induction (previously untreated AML; 200 mg BID, 3 patients) | complete remission (CR) rate (previously untreated AML; 200 mg BID, 3 patients) | dose limiting toxicity (DLT) (previously untreated AML; 200 mg BID, three patients) | dose limiting toxicity (DLT) (previously untreated AML; 400 mg BID, 3 additional patients (DL 1 expanded)) | patients requiring a second induction (previously untreated AML; 400 mg BID, 6 patients) | complete remission (CR) rate (previously untreated AML; 400 mg BID, 6 patients) | adverse event possibly related to entospletinib (previously untreated AML; 400 mg BID, one of three patients, with documented fungal pneumonia, did not meet DLT criteria) | platelet response during the window period (previously untreated AML; another patient with 11q23-rearranged AML, monotherapy window) | toxicities after combination with intensive chemotherapy (previously untreated AML; combination with daunorubicin and cytarabine) | tolerability of combination with intensive chemotherapy (previously untreated AML; doses up to 400 mg BID) | tolerability of single-agent entospletinib (previously untreated AML; monotherapy window period (up to 14 days), AML patients) | clinical activity in AML (previously untreated AML; overall conclusion) | most common non hematologic adverse events (previously untreated AML; overall, inclusive of intensive chemotherapy periods) | response after entospletinib monotherapy window (previously untreated AML; person with 11q23-rearranged AML, 14 day monotherapy, prior to chemotherapy) |
| --- | --- | --- | --- | --- | --- | --- | --- | --- | --- | --- | --- | --- | --- | --- | --- |
| COc1cc(Nc2ncc(F)c(Nc3ccc4c(n3)N(COP(=O)(O)O)C(=O)C(C)(C)O4)n2)cc(OC)c1OC [Fostamatinib] | hypertension, neutropenia and transaminitis |  |  |  |  |  |  |  |  |  |  |  |  |  |  |
| c1cn2cc(-c3ccc4cn[nH]c4c3)nc(Nc3ccc(N4CCOCC4)cc3)c2n1 [entospletinib] |  | two | 100% | no DLT was observed | none of whom experienced DLT | none | 100% | grade 3 pneumonitis | significant platelet response | common and typical | well tolerated | well tolerated | significant clinical activity | febrile neutropenia, nausea, and diarrhea | achieved morphologic and cytogenetic CR |

— patent US20180071303A1, “SYK INHIBITORS” (Gilead Sciences, Inc., priority 2016, published 2018)
